The target of data set [1] is Acetylcholinesterase (Homo sapiens, UniProt P22303). The data set can be described thus: Inhibition of human recombinant AChE expressed in HEK293 cells using […] as substrate preincubated with enzyme for 20 mins followed by substrate addition and measured after 5 mins by Ellman's method. Background: In Ellman's method for cholinesterases, released thiocholine reacts with DTNB.

The target in data set [2] is T1, Cholinesterase (Homo sapiens, UniProt P06276). The data set can be described thus: Inhibition of human serum BuChe by Ellman's method.
The next data set concerns Primary neuron. The data set can be described thus: Neuroprotective activity against serum/K+ deprivation induced cytotoxicity in rat primary neuronal cells up to 10 uM by MTT assay. The format is functional, cell-based. (In general: Tetrazolium dyes change colour on reduction, which living cells bring about.)
The test system of data set [3] is Cerebellar granule neurone. The data set can be described thus: Neuroprotective activity against 6-OHDA-induced cytotoxicity in rat primary cerebellar granule neuron at 1 to 25 uM by MTT assay. It is filed as functional, cell-based.
Data set [4] concerns Cerebellar granule neurone. The data set is described as follows: Cytotoxicity in rat Primary cerebellar granule neuron assessed as cell viability up to 5 uM after 24 hrs by MTT assay. The format is cell-based.
The nature of data set [5]: Cytotoxicity against human HepG2 cells assessed as cell survival at 1 to 25 uM after 24 hrs by MTT assay relative to control. It is filed as cell-based. The note with it: read-out: Activity.
The nature of data set [6]: Stability of compound in human plasma at 10 uM measured up to 360 mins by LC-MS analysis. The conditions noted are these: 6 h. The format is ADME, cell-free.
The target of data set [7] is T1, Cholinesterase. The data set is described as follows: Potency index, ratio of tacrine IC50 to compound IC50 for human serum BuChe by Ellman's method.
Data set [8] concerns the target T2, Acetylcholinesterase (Electrophorus electricus, UniProt O42275).
Description: Inhibition of electric eel AChE assessed as dissociation constant for enzyme-inhibitor complex using acetylthiocholine iodide as substrate measured for 125 secs by Ellman's method
The target of data set [9] is T2, Acetylcholinesterase. The source holds these as a separate data set.
Description: Inhibition of electric eel AChE assessed as dissociation constant for enzyme-substrate-inhibitor complex using acetylthiocholine iodide as substrate measured for 125 secs by Ellman's method
In data set [10] the target is T3, Cholinesterase (Equus caballus, UniProt P81908).
Description: Inhibition of equine serum BuChE assessed as dissociation constant for enzyme-inhibitor complex using butyrylthiocholine iodide as substrate measured for 125 secs by Ellman's method
Data set [11] addresses T3, Cholinesterase. The source holds these as a separate data set.
Description: Inhibition of equine serum BuChE assessed as dissociation constant for enzyme-substrate-inhibitor complex using butyrylthiocholine iodide as substrate measured for 125 secs by Ellman's method
The target in data set [12] is Amyloid-beta precursor protein (Homo sapiens) (UniProt P05067). The conditions noted are these: at 50 µM.
Description: Inhibition of amyloid beta (1 to 42) (unknown origin) self aggregation at 50 uM incubated for 48 hrs by thioflavin-T fluorescence method relative to control

Each structure is given as a SMILES string. Calls of active or inactive are those of the source. No cut-off for these calls is given here.

T1 sequence (P06276 whole entry): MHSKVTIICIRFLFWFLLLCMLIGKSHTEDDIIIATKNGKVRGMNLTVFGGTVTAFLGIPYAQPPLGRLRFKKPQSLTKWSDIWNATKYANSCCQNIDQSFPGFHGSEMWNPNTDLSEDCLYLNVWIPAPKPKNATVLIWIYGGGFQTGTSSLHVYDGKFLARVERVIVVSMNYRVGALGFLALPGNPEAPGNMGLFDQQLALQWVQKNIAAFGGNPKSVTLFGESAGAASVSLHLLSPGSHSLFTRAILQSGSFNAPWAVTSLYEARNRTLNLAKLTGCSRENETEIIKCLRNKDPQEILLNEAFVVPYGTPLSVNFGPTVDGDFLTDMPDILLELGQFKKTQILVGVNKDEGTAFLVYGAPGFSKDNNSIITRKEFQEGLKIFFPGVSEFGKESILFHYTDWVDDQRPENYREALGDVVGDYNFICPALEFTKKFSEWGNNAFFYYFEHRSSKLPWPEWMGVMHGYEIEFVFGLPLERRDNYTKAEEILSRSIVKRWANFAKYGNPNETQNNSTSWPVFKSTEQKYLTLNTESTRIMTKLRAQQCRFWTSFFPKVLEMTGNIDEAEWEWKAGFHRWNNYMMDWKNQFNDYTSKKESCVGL
T3 sequence (P81908 whole entry): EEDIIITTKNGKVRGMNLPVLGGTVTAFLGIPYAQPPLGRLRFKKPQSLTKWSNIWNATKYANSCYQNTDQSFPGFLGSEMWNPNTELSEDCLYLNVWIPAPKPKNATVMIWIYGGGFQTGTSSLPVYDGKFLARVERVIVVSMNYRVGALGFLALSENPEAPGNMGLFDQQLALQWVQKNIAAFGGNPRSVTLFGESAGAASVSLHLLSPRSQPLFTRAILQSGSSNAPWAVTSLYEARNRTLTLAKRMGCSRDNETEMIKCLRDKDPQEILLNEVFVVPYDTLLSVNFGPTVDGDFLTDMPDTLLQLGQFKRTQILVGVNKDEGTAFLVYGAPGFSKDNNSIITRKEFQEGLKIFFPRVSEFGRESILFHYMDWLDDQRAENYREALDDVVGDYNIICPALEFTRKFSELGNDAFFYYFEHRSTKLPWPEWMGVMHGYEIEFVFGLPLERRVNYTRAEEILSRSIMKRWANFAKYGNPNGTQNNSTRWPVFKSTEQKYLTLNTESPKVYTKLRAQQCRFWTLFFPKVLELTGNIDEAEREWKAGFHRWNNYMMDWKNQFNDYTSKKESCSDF
T2 sequence (O42275 whole entry): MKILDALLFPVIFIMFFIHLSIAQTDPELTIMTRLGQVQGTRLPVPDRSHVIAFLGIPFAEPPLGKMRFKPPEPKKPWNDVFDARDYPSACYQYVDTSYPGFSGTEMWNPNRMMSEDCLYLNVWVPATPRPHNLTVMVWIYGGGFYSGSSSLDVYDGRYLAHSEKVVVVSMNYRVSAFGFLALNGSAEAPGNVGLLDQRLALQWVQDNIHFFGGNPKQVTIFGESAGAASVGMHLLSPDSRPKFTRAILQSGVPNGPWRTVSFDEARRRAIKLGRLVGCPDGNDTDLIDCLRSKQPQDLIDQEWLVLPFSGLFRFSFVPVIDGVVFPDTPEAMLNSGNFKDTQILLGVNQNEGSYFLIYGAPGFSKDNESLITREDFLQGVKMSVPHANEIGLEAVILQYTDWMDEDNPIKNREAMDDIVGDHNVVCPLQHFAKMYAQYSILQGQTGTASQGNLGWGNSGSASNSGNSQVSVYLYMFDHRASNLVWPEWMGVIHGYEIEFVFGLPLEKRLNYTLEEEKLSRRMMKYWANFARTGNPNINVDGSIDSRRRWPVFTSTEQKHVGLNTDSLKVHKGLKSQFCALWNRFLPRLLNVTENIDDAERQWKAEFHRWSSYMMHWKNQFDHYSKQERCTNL
Sequence of Amyloid-beta precursor protein (Homo sapiens) (P05067 whole entry): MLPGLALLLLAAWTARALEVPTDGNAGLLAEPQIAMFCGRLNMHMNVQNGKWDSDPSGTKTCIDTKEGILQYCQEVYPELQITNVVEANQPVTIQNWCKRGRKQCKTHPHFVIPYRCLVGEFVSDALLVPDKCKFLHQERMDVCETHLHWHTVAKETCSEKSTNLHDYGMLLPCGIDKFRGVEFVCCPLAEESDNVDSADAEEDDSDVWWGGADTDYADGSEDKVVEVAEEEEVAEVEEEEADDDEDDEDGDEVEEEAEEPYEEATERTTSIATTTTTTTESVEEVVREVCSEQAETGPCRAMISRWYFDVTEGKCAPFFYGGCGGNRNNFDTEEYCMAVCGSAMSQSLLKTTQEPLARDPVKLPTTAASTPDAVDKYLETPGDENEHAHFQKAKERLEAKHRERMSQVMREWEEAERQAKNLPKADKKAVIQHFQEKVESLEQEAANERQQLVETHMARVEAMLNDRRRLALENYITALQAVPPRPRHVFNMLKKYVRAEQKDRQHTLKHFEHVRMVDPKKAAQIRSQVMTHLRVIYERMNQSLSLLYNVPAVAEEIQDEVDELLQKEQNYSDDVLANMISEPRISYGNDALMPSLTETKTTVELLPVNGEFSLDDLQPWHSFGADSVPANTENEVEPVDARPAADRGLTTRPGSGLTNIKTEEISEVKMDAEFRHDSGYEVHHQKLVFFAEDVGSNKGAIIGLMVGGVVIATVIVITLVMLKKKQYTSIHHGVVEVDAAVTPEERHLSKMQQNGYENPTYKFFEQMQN
Sequence of Acetylcholinesterase (Homo sapiens, UniProt P22303) (P22303 whole entry): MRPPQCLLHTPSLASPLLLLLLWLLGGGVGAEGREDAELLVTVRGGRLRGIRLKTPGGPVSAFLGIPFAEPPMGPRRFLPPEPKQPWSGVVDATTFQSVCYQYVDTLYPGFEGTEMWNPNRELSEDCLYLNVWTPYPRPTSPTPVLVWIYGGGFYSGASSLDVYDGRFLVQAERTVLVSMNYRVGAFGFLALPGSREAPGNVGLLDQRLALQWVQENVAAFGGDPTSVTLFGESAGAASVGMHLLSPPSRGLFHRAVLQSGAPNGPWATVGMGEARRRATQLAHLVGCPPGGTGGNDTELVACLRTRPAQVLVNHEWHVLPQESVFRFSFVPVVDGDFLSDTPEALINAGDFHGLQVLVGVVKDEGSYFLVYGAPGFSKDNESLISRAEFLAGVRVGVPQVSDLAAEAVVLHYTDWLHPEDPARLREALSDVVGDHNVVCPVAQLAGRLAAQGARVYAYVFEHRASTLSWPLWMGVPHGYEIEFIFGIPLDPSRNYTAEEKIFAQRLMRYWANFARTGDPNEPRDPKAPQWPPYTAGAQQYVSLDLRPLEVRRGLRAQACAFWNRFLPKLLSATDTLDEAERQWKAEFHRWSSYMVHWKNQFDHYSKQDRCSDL

As to `COc1ccc(CCOCCCCCNc2c3c(nc4ccccc24)CCCC3)cc1OC`, the results for the IC50 on Acetylcholinesterase [1] and at Cholinesterase [2] were 168 nM and 0.515 nM, respectively. Moreover, the result in the data set on Primary neuron was Active. Besides, the result in data set [3] was inactive. The Activity entry in data set [4] is “Non-Toxic”. Moreover, the viability at 24 h, 25 µM in data set [5] fell in the range of 60 to 70%. In addition, in data set [6], the Stability result is recorded as “Stable”. In addition, the Ratio IC50 on Cholinesterase [7] was 85. The inhibitory constant (Ki) – broadly, a measure of affinity in units of concentration, obtained from inhibition or displacement – came out at 170 nM at Acetylcholinesterase [8], 55 nM on Acetylcholinesterase [9], 7 nM on Cholinesterase [10] and 1.9 nM on Cholinesterase [11]. Also, the inhibition (commonly the share of the control response that was lost under treatment) in data set [12] came to 63.8%.

The values above are taken from ChEMBL document CHEMBL4359860, “Tacrine-O-protected phenolics heterodimers as multitarget-directed ligands against Alzheimer's disease: Selective subnanomolar BuChE inhibitors” (Eur J Med Chem, 2019).
